Experimental data taken from patent US11286288B2, “Pharmaceutical compound” (VALLAURIX PTE. LTD., priority 2015, dated 2022).
Blank lines part the entries; values can stand above or below the substance they belong to.

Tests used:
Assay type in all cases: cell-based
MC1R [1] = molecular target: T1, MC1R (Homo sapiens, UniProt Q01726); assay: cAMP radioimmunoassay in human melanocyte culture 1753
T1 construct: human melanocyte cultures, coded 1750 and 1753, that were derived from 2 different donors expressing functional MC1R; endogenous in cells; host or cells: primary human melanocyte cultures 1750 and 1753 (two donors)
Experimental: Compounds 1, 2, 3 and 4 were tested in various separate tests and using 2 different human melanocyte cultures, coded 1750 and 1753, that were derived from 2 different donors expressing functional MC1R. The melanocytes were plated at a density of 0.3*10^6 cells/well. After 48 hours, the melanocytes were treated with the different compound concentrations for 1 hour. Controls without compound were included in all experiments. […] The reaction was stopped by addition of 50 μl N HCl and the supernatant in each well was used to measure cAMP using a radioimmunoassay as described by Suzuki 1996 (Suzuki I, Cone R D, Im S, Nordlund ii, Abdel-Malek Z: “Binding of melanotropic hormones to the MC1 receptor on human melanocytes stimulates proliferation and melanogenesis”. Endocrinology 137: 1627-1633, 1996). Duplicate samples from each well were assayed with triplicate wells included in each compound group. The results from different tests cannot be compared due to differences in melanocyte cultures and to different passage number. The mean of 6 cAMP measurements per group was expressed as % of the control group. Statistical analysis was carried out using ANOVA followed by Newman Kuels test. In some cases, unpaired t-test was used.

tyrosinase = assay: Tyrosinase activity (3H-tyrosine) in human melanocyte culture 1750; conditions: Test 4, melanocytes 1750, six days treatment; concentration not given
Experimental: Compounds 1, 2, 3 and 4 were tested in various separate tests and using 2 different human melanocyte cultures, coded 1750 and 1753, that were derived from 2 different donors expressing functional MC1R. The melanocytes were plated at a density of 0.3*10^6 cells onto 60 mm dishes (triplicate dishes/group). After 48 hours, the melanocytes were treated every other day for a total of six days with different doses of each compound. Controls without compound were included in all experiments. In some experiments reference compound NDP-MSH was included. On treatment day 5, ^3H-labeled tyrosine, the substrate for tyrosinase, was added and 24 hours later, the supernatant was saved to be assayed for tyrosinase activity as described by Suzuki et al (see example 3). Duplicate samples from each were assayed, with triplicate dishes included in each group. Cell number in each dish was counted, and tyrosinase activity was expressed as dpm/10^6 cells and as % of the control. Tests results between separate tests cannot be compared due to differences in melanocyte cultures and to different passage number. Statistical analysis was carried out using ANOVA followed by Newman Kuels test.
It will be understood that this tyrosinase activation test relates to a late event after MC1R activation, compared to the earlier secondary messenger effect of the above cAMP test. As pointed out above, activity of tyrosinase requires days of treatment. Following are the results comparing the compounds in the test indicated: […]

MC1R [2] = molecular target: T1, MC1R; assay: cAMP radioimmunoassay in human melanocyte culture 1750
Experimental: Compounds 1, 2, 3 and 4 were tested in various separate tests and using 2 different human melanocyte cultures, coded 1750 and 1753, that were derived from 2 different donors expressing functional MC1R. The melanocytes were plated at a density of 0.3*10^6 cells/well. After 48 hours, the melanocytes were treated with the different compound concentrations for 1 hour. Controls without compound were included in all experiments. In some experiments reference compound NDP-MSH was included. The reaction was stopped by addition of 50 μl N HCl and the supernatant in each well was used to measure cAMP using a radioimmunoassay as described by Suzuki 1996 (Suzuki I, Cone R D, Im S, Nordlund ii, Abdel-Malek Z: “Binding of melanotropic hormones to the MC1 receptor on human melanocytes stimulates proliferation and melanogenesis”. Endocrinology 137: 1627-1633, 1996). Duplicate samples from each well were assayed with triplicate wells included in each compound group. The results from different tests cannot be compared due to differences in melanocyte cultures and to different passage number. The mean of 6 cAMP measurements per group was expressed as % of the control group. Statistical analysis was carried out using ANOVA followed by Newman Kuels test. In some cases, unpaired t-test was used.

T1 sequence (Q01726 whole entry): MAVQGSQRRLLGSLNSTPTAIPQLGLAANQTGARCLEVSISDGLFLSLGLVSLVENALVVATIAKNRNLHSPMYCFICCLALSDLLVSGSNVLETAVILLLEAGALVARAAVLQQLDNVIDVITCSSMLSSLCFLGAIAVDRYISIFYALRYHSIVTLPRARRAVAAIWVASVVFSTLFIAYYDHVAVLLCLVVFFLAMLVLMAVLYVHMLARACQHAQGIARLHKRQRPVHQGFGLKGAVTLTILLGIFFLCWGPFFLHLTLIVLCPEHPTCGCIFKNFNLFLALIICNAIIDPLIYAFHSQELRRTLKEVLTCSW

Substance: (C2H5)3N—CH2—CO-Nle-Glu-His-D-Phe-Arg-Trp-NH2 [Compound 1]
- cAMP, highest overall efficacy value, % of the control group (MC1R [1]; Test 2, melanocytes 1753, at 10^-7 M, 1 hour treatment, p<0.05): 431%
- tyrosinase activity, efficacy, % of the control (tyrosinase): 178%

Substance: (C2H5)3N—CH2—CO-Nle-Glu-His-D-Phe-homoArg-Trp-NH2 [Compound 3]
- cAMP, highest overall efficacy value, % of the control group (MC1R [2]; Test 1, melanocytes 1750, at 10^-7 M, 1 hour treatment, p<0.05): 327%
- dose at which maximum effect on cAMP was achieved (MC1R [1]; Test 2, melanocytes 1753, p<0.05 vs control): 10^−9 M

Substance: (CH3)3N—(CH2)3—CO-Nle-Glu-His-D-Phe-Arg-Trp-NH2 [Compound 2]
- dose at which maximum effect on cAMP (vs control) was achieved (MC1R [2]; Test 1, melanocytes 1750, 1 hour treatment, p<0.05 vs control): 10^−8 M
- lowest dose showing cAMP efficacy statistically different from control (MC1R [1]; Test 2, melanocytes 1753, p<0.05): 10^−11 M
- tyrosinase activity, efficacy, % of the control (tyrosinase): 171%

Second part, the substance after the results:

- cAMP, highest efficacy, % of the control group (MC1R [1]; Test 3, melanocytes 1753, at 10^-7 M, 1 hour treatment, p<0.05): 253%
Substance: (CH3)3N—(CH2)3—CO-Nle-Glu-His-D-Phe-homoArg-Trp-NH2 [Compound 4]

- tyrosinase activity, efficacy, % of the control (tyrosinase): 166%
Substance: NDP-MSH [reference compound]
